Assay results from US12655174B2, “Adenosine A3 receptor agonists, preparation methods and uses thereof” (ZHEJIANG VIMGREEN PHARMACEUTICALS, LTD., priority 2020, dated 2026).
Values joined by “and” are separate entries in the source; they are usually repeats but may differ in a detail not shown here. Identical values can stand only once.

Tests used:
[1] = Pharmacokinetic test of compound in SD rat; format: in vivo; conditions: SD rats, intragastric administration (IG), cassette dosing
Method: Example 28: Pharmacokinetic Test of Compound in SD Rat
The animal species used in this experiment were SD rats. There were 3 animals per group. The rats were dosed in cassette format, i.e., multiple (1-6) different compounds were dosed simultaneously to the same group of the SD rats. The vehicle used for the drug was 5% DMSO+5% Solutl+90% ([…] methylcellulose M450), and the administration route was intragastric administration (IG).

[2] = biological target: T1, ADORA3 receptor (CHO cells stably expressing ADORA3 receptor) (Homo sapiens, UniProt P0DMS8); experiment: Effect of compound on intracellular cAMP level by adenosine A3 receptor agonism; format: cell-based; conditions: forskolin-stimulated
T1 construct: expressed in transfected cells
T1 sequence (P0DMS8 1-318): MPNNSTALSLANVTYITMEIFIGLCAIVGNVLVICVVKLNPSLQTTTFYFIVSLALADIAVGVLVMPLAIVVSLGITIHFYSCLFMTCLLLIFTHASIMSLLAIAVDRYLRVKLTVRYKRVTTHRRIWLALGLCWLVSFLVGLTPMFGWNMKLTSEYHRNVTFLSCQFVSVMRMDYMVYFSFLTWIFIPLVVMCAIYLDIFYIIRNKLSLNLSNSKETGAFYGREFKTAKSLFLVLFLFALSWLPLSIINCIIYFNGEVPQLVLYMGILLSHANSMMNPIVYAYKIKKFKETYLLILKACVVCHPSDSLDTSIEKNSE
Method: Example 26: Test the Effect of Compound on Intracellular cAMP Level by Adenosine A3 Receptor Agonism
• 1) 1×HBSS with Ca2+ and Mg2+ (14 mL), 1 M HEPES (75 μL), a 7.5% (w/v) BSA stabilizer (pH 7.4, 200 μL), and 20 mM rolipram (7.5 μL) were respectively prepared as cAMP assay buffer. • 2) Preparation of compound source plate • a. […] A 10 mM stock solution was subjected to a 3-fold serial dilution by 100% (v/v) DMSO to prepare 10 doses of the test substance. • c. 1 mM of Forskolin was prepared by 100% (v/v) DMSO. • 3) Preparation of test plate • a. Prior to the assay, CHO cells stably expressing ADORA3 receptor were harvested and the cells were counted by using a Countess cell counter. […] The cells were seeded at a density of 2,000 cells/well in a 384-well plate. • 4) 10 nL/well of the serially diluted compound and 10 nL/well of 1 mM of forskolin were transferred to each well with ADORA3 receptor expressing cells by using Echo550. • 5) A cell plate was centrifuged at 1,000 rpm for 1 minute and then stirred at 600 rpm for 2 minutes. The plate was incubated at 37° C. • 6) An Eu-cAMP tracer working solution and an Ulight-anti-cAMP working solution were prepared according to the following table.
• 7) 5 μl/well of the Eu-cAMP tracer working solution and 5 μl/well of the Ulight-anti-cAMP working solution were added to each well of the plate. […] 2. Data Analysis • 1) An activation percentage was calculated by using the following formula:
[formula] • % Activation: activation percentage • Ratiocpd: ratio of emissivity of test compound • RatioLow control: ratio of low emissivity • RatioHigh control: ratio of high emissivity • 2) EC50 was calculated by an XLfit using the Hill equation to fit the activity percentage and a log of a compound concentration. 3. Test Result

| Structure (SMILES) | AUC_D [1] | EC50 [2] |
| --- | --- | --- |
| CNC(=O)[C@H]1OC(n2cnc3c(NCc4ccccn4)nc(-c4cncc(OC)c4)nc32)[C@H](O)[C@@H]1O (stereo in doubt) [compound 307, (2S,3S,4R,5S)-3,4-dihydroxyl-5-(2-(5-methoxypyridin-3-yl)-6-((pyridin-2-ylmethyl)amino)-9H-purin-9-yl)-N-methyltetrahydrofuran-2-carboxamide] | 173.85 kg·ng·h/mL/mg | 9.4 nM |
| [2H]C([2H])([2H])NC(=O)[C@H]1O[C@@H](n2cnc3c(NCc4ccccc4)nc(-c4ccsc4)nc32)[C@H](O)[C@@H]1O [compound 24, (2S,3S,4R,5R)-5-(6-(benzylamino)-2-(thiophen-3-yl)-9H-purin-9-yl)-3,4-dihydroxyl-N-(methyl-d3)-tetrahydrofuran-2-formamide] | 86.00 kg·ng·h/mL/mg | 5.77 nM |
| [2H]C([2H])([2H])NC(=O)[C@H]1O[C@@H](n2cnc3c(NC([2H])([2H])[2H])nc(-c4ccsc4)nc32)[C@H](O)[C@@H]1O [compound 92, (2S,3S,4R,5R)-3,4-dihydroxyl-N-(methyl-d3)-5-(6-(methyl-d3-amino)-2-(thiophen-3-yl)-9H-purin-9-yl)tetrahydrofuran-2-carboxamide] | 83.00 kg·ng·h/mL/mg | < 0.51 nM |
| CNC(=O)[C@H]1O[C@@H](n2cnc3c(NCc4cccc(C)c4)nc(-c4cccnc4)nc32)[C@H](O)[C@@H]1O [compound 108, (2S,3S,4R,5R)-3,4-dihydroxyl-N-methyl-5-(6-((3-methylbenzyl)amino)-2-(pyridin-3-yl)-9H-purin-9-yl)tetrahydrofuran-2-carboxamide] | 801.47 kg·ng·h/mL/mg | 1.58 nM |
| CNC(=O)[C@H]1O[C@@H](n2cnc3c(NCc4cccc(C)n4)nc(-c4cncc(OC)c4)nc32)[C@H](O)[C@@H]1O [compound 111, (2S,3S,4R,5R)-3,4-dihydroxyl-5-(2-(5-methoxypyridin-3-yl)-6-((((6-methylpyridin-2-yl))methyl)amino)-9H-purin-9-yl)-N-methyltetrahydrofuran-2-carboxamide] | 230.72 kg·ng·h/mL/mg | 7.32 nM |
| CNC(=O)[C@H]1O[C@@H](n2cnc3c(NCc4cccc(C)c4)nc(-c4cncc(Cl)c4)nc32)[C@H](O)[C@@H]1O [compound 160, (2S,3S,4R,5R)-5-(2-(5-chloropyridin-3-yl)-6-((3-methylbenzyl)amino)-9H-purin-9-yl)-3,4-dihydroxyl-N-methyltetrahydrofuran-2-carboxamide] | 1900.75 kg·ng·h/mL/mg and 1515.94 kg·ng·h/mL/mg | 3.53 nM |
| CNC(=O)[C@H]1O[C@@H](n2cnc3c(NCc4cccc(C)c4)nc(-c4cncc(F)c4)nc32)[C@H](O)[C@@H]1O [compound 161, (2S,3S,4R,5R)-5-(2-(5-fluoropyridin-3-yl)-6-((3-methylbenzyl)amino)-9H-purin-9-yl)-3,4-dihydroxyl-N-methyltetrahydrofuran-2-carboxamide] | 994.72 kg·ng·h/mL/mg | 0.74 nM |
| CNC(=O)[C@H]1O[C@@H](n2cnc3c(NCc4cccc(C(F)(F)F)c4)nc(-c4cncc(Cl)c4)nc32)[C@H](O)[C@@H]1O [compound 179, (2S,3S,4R,5R)-5-(6-(3-(trifluoromethyl)benzylamino)-2-(5-chloropyridin-3-yl)-9H-purin-9-yl)-3,4-dihydroxyl-N-methyl-tetrahydrofuran-2-formamide] | 273.37 kg·ng·h/mL/mg | 9.44 nM |
| CNC(=O)[C@H]1O[C@@H](n2cnc3c(NCc4cc(Cl)ccn4)nc(-c4cccnc4)nc32)[C@H](O)[C@@H]1O [compound 182, (2S,3S,4R,5R)-5-(6-((4-chloropyridin-2-yl)methylamino)-2-(pyridin-3-yl)-9H-purin-9-yl)-3,4-dihydroxyl-N-methyl-tetrahydrofuran-2-formamide] | 235.62 kg·ng·h/mL/mg | < 0.51 nM |
| CNC(=O)[C@H]1O[C@@H](n2cnc3c(NCc4cc(Cl)ccn4)nc(-c4cncc(OC)c4)nc32)[C@H](O)[C@@H]1O [compound 185, (2S,3S,4R,5R)-5-(6-((4-chloropyridin-2-yl)methylamino)-2-(5-methoxypyridin-3-yl)-9H-purin-9-yl)-3,4-dihydroxyl-N-methyl-tetrahydrofuran-2-formamide] | 589.63 kg·ng·h/mL/mg | < 0.51 nM |
| CNC(=O)[C@H]1O[C@@H](n2cnc3c(NCc4ccccc4)nc(-c4cncc(OC)c4)nc32)[C@H](O)[C@@H]1O [compound 187, (2S,3S,4R,5R)-5-(6-(benzylamino)-2-(5-methoxypyridin-3-yl)-9H-purin-9-yl)-3,4-dihydroxyl-N-methyl-tetrahydrofuran-2-formamide] | 1269.78 kg·ng·h/mL/mg | 14.5 nM |
| CNC(=O)[C@H]1O[C@@H](n2cnc3c(NCc4cccc(Cl)n4)nc(-c4cncc(OC)c4)nc32)[C@H](O)[C@@H]1O [compound 230, (2S,3S,4R,5R)-5-(6-(((6-chloropyridin-2-yl)methyl)amino)-2-(5-methoxypyridin-3-ly)-9H-purin-9-yl)-3,4-dihydroxyl-N-methyltetrahydrofuran-2-carboxamide] | 212.91 kg·ng·h/mL/mg | 8.68 nM |
| [2H]C([2H])([2H])NC(=O)[C@H]1O[C@@H](n2cnc3c(NCc4cc(Cl)ccc4F)nc(-c4cncc(Cl)c4)nc32)[C@H](O)[C@@H]1O [compound 245, (2S,3S,4R,5R)-5-(6-(5-chloro-2-fluorobenzylamino)-2-(5-chloropyridin-3-yl)-9H-purin-9-yl)-3,4-dihydroxyl-N-((methyl-d3))-tetrahydrofuran-2-carboxamide] | 1182.41 kg·ng·h/mL/mg | 0.28 nM |
| [2H]C([2H])([2H])NC(=O)[C@H]1O[C@@H](n2cnc3c(NCc4cccs4)nc(-c4cncc(Cl)c4)nc32)[C@H](O)[C@@H]1O [compound 254, (2S,3S,4R,5R)-5-(2-(5-chloropyridin-3-yl)-6-((thiophen-2-ylmethyl)amino)-9H-purin-9-yl)-3,4-dihydroxyl-N-(methyl-d3)tetrahydrofuran-2-carboxamide] | 703.00 kg·ng·h/mL/mg | 9.51 nM |
| [2H]C([2H])([2H])NC(=O)[C@H]1O[C@@H](n2cnc3c(NCc4ccsc4)nc(-c4cncc(Cl)c4)nc32)[C@H](O)[C@@H]1O [compound 255, (2S,3S,4R,5R)-5-(2-(5-chloropyridin-3-yl)-6-((thiophen-3-ylmethyl)amino)-9H-purin-9-yl)-3,4-dihydroxyl-N-(methyl-d3)tetrahydrofuran-2-carboxamide] | 406.00 kg·ng·h/mL/mg | 8.58 nM |
| CNC(=O)[C@H]1O[C@@H](n2cnc3c(NCc4cccc(C)c4)nc(-c4cncc(C)c4)nc32)[C@H](O)[C@@H]1O [compound 284, (2S,3S,4R,5R)-5-(6-(3-methylbenzylamino)-2-(5-methylpyridin-3-yl)-9H-purin-9-yl)-3,4-dihydroxyl-N-methyl-tetrahydrofuran-2-formamide] | 8902.66 kg·ng·h/mL/mg | 2.85 nM |
| CNC(=O)[C@H]1O[C@@H](n2cnc3c(NCc4cccc(C(F)(F)F)n4)nc(-c4cncc(F)c4)nc32)[C@H](O)[C@@H]1O [compound 289, (2S,3S,4R,5R)-5-(2-(5-fluoropyridin-3-yl)-6-(((6-(trifluoromethyl)pyridin-2-yl)methyl)amino)-9H-purin-9-yl)-3,4-dihydroxyl-N-methyltetrahydrofuran-2-carboxamide] | 106.30 kg·ng·h/mL/mg | 6.81 nM |
| CNC(=O)[C@H]1O[C@@H](n2cnc3c(NCc4cccc(C(F)(F)F)n4)nc(-c4cncc(Cl)c4)nc32)[C@H](O)[C@@H]1O [compound 290, (2S,3S,4R,5R)-5-(2-(5-chloropyridin-3-yl)-6-(((6-(trifluoromethyl)pyridin-2-yl)methyl)amino)-9H-purin-9-yl)-3,4-dihydroxyl-N-methyltetrahydrofuran-2-carboxamide] | 216.77 kg·ng·h/mL/mg | 12.4 nM |
